Assay results published in publication PMC4476799, “Englerin A Agonizes the TRPC4/C5 Cation Channels to Inhibit Tumor Cell Line Proliferation” (PLoS ONE, 2015).
Like-named read-outs stand apart in the source and are kept apart here.

System: cancer cell lines from the cancer cell line encyclopedia (CCLE)
Assay: Cell line profiling (CLiP) proliferation experiment
Format: cell-based
Parameters: ACTIVITY_AREA: scale not given here; AMAX: unit not given here
Conditions: for IC50: read-out: Crossing Point; for EC50: read-out: Inflection Point
Protocol: Compound profiling experiment and data analysis was performed as previously described. Data was imported and plotted using the Tibco Spotfire DXP application. Lines were categorized as sensitive, intermediate and refractory as follows: Amax<-40 & Inflection Point <2 ~ Sensitive, Amax>-20 & Inflection Point >10 ~ Refractory, all else were called Intermediate. Cancer Cell line HG-U133 Plus 2 data was processed and normalized as described. […] Five sets of refractory cell lines were generated from the pool of refractory cell lines trying to match the lineage composition of the set of sensitive cell lines. The limma package was used as previously described to perform the statistical comparison.

[1] = CAS-1, central_nervous_system, astrocytoma_Grade_IV
[2] = CCK-81, large_intestine, adenocarcinoma
[3] = CCRF-CEM, haematopoietic_and_lymphoid_tissue, acute_lymphoblastic_T_cell_leukaemia
[4] = CFPAC-1, pancreas, ductal_carcinoma
[5] = CI-1, haematopoietic_and_lymphoid_tissue, B_cell_lymphoma_unspecified
[6] = CMK, haematopoietic_and_lymphoid_tissue, acute_myeloid_leukaemia
[7] = CMK-11-5, haematopoietic_and_lymphoid_tissue, acute_myeloid_leukaemia
[8] = CML-T1, haematopoietic_and_lymphoid_tissue, blast_phase_chronic_myeloid_leukaemia
[9] = COLO 205, large_intestine, adenocarcinoma
[10] = COLO 668, lung, small_cell_carcinoma
[11] = COLO 775, haematopoietic_and_lymphoid_tissue, chronic_myeloid_leukaemia
[12] = COLO-320, large_intestine, adenocarcinoma
[13] = COLO-680N, oesophagus, squamous_cell_carcinoma

Question: Which results are given for `CC(C)[C@@]12C[C@@H](O)[C@@](C)(O1)[C@@H]1CC[C@@H](C)[C@H]1[C@@H]2OC(=O)/C=C/c1ccccc1` [Englerin B]?
Answer: effect on proliferation of cancer cell lines (524 cancer cell lines from the CCLE): no cancer cell lines have their growth potently inhibited; IC50 (A4/Fuk cells): 18.1 µM; EC50 (A4/Fuk cells): 18.1 µM; IC50 (ACC-MESO-1, ACC-MESO-1 cells): > 30 µM; IC50 (ACC-MESO-1, cell line ACC-MESO-1, pleura, NS): > 30 µM; IC50 (BDCM cells): 16.9 µM; EC50 (BDCM cells): 16.9 µM; EC50 (BHY cells): 9.33 µM; IC50 (BICR 6 cells): 23 µM; EC50 (BICR 6 cells): 23 µM; EC50 (BICR 22 cells): 15 µM; IC50 (CAL-78, bone, dedifferentiated): > 30 µM; IC50 (CAL-78 cells): > 30 µM; ACTIVITY_AREA (CAMA-1, breast, NS): 21.9; AMAX (CAMA-1, breast, NS): -43.81; RESPONSE (CAMA-1, breast, NS): INTERMEDIATE; ACTIVITY_AREA [1]: 8.27; AMAX [1]: -27.8; RESPONSE [1]: INTERMEDIATE; IC50 [1]: > 30 µM; IC50 (CAS-1 cells): > 30 µM; ACTIVITY_AREA [2]: 19.43; AMAX [2]: -61.47; RESPONSE [2]: INTERMEDIATE; IC50 [2]: 24.9 µM; EC50 [2]: 24.9 µM; IC50 (CCK-81 cells): 24.9 µM; EC50 (CCK-81 cells): 24.9 µM; ACTIVITY_AREA [3]: 12.38; AMAX [3]: -48.26; RESPONSE [3]: INTERMEDIATE; ACTIVITY_AREA [4]: 25.86; AMAX [4]: -50.08; RESPONSE [4]: INTERMEDIATE; ACTIVITY_AREA (CHL-1, skin, NS): 19.98; AMAX (CHL-1, skin, NS): -60.11; RESPONSE (CHL-1, skin, NS): INTERMEDIATE; ACTIVITY_AREA (CHP-212, autonomic_ganglia, NS): 33.44; AMAX (CHP-212, autonomic_ganglia, NS): -55.99; RESPONSE (CHP-212, autonomic_ganglia, NS): INTERMEDIATE; ACTIVITY_AREA [5]: 19.7; AMAX [5]: 16.67; RESPONSE [5]: REFRACTORY; IC50 [5]: > 30 µM; ACTIVITY_AREA [6]: 61.63; AMAX [6]: -8.06; RESPONSE [6]: REFRACTORY; IC50 [6]: > 30 µM; IC50 (CMK-11-5, CMK-11-5, haematopoietic_and_lymphoid_tissue, acute_myeloid_leukaemia): 24.1 µM; ACTIVITY_AREA [7]: 101.26; AMAX [7]: -51.95; RESPONSE [7]: INTERMEDIATE; IC50 (CML-T1, CML-T1, haematopoietic_and_lymphoid_tissue, blast_phase_chronic_myeloid_leukaemia): 17.9 µM; ACTIVITY_AREA [8]: 42.33; AMAX [8]: -73.13; RESPONSE [8]: INTERMEDIATE; ACTIVITY_AREA [9]: 33.02; AMAX [9]: -61.38; RESPONSE [9]: INTERMEDIATE; ACTIVITY_AREA [10]: 28.83; AMAX [10]: -55.03; RESPONSE [10]: INTERMEDIATE; IC50 (COLO 699, COLO-699, lung, adenocarcinoma): 3.62 µM; IC50 (COLO 704, COLO-704, ovary, NS): 6.82 µM; ACTIVITY_AREA (COLO 741, skin, NS): 12.88; AMAX (COLO 741, skin, NS): -37.55; RESPONSE (COLO 741, skin, NS): INTERMEDIATE; ACTIVITY_AREA [11]: 59.22; AMAX [11]: -93.44; RESPONSE [11]: INTERMEDIATE; IC50 [11]: 9.44 µM; EC50 [11]: 9.31 µM; ACTIVITY_AREA (COLO 792, skin, NS): 11.82; AMAX (COLO 792, skin, NS): -22.14; RESPONSE (COLO 792, skin, NS): INTERMEDIATE; IC50 (COLO 792, skin, NS): > 30 µM; EC50 (COLO 792, skin, NS): 16 µM; IC50 (COLO 792 cells): > 30 µM; EC50 (COLO 792 cells): 16 µM; ACTIVITY_AREA (COLO 829, skin, NS): 31.7; AMAX (COLO 829, skin, NS): -7.17; RESPONSE (COLO 829, skin, NS): REFRACTORY; ACTIVITY_AREA [12]: 102.29; AMAX [12]: -70.01; RESPONSE [12]: INTERMEDIATE; ACTIVITY_AREA [13]: 26.11; AMAX [13]: -34.59; RESPONSE [13]: INTERMEDIATE; ACTIVITY_AREA (COLO-699, lung, adenocarcinoma): 153.56; AMAX (COLO-699, lung, adenocarcinoma): -71.88; RESPONSE (COLO-699, lung, adenocarcinoma): INTERMEDIATE; ACTIVITY_AREA (COLO-704, ovary, NS): 138.81
